Columns and labels:
[1] = target: T1, PTPN2 (HiBIT-PTPN2 in 293T.109 cells) (Homo sapiens, UniProt P17706); assay: HiBiT Degradation 293T.109 PTPN2 (Nano-Glo HiBiT Lytic Assay); assay type: cell-based; conditions: 24.0 hours
T1 construct: expressed in transfected cells; host or cells: 293T.109 (293T WT from ATCC)
T1 sequence (P17706 1-415): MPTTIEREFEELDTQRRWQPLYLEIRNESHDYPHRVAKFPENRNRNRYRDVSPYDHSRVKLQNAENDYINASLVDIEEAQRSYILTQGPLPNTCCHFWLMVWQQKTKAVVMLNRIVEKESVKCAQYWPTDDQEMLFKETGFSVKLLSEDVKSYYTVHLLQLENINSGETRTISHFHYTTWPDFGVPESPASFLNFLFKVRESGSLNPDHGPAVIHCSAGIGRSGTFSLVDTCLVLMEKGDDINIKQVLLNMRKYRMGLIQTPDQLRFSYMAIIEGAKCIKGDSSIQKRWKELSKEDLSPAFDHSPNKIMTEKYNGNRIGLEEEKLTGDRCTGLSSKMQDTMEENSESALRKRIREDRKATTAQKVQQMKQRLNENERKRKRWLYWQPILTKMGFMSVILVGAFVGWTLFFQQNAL
Procedure, shortened: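 293T.109 cells with ectopic N-terminal HiBiT-tagged PTPN2 (5000/well) exposed to compounds for 24 h at 37 °C, 5% CO2; 11-point half-log titration from 10 μM top, duplicates. Remaining HiBiT-PTPN2 read as luminescence with Nano-Glo HiBiT lytic reagent, normalised to untreated cells (0%) and reagent-free wells.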

PTPN2 (B16F10.4 cells) = target: T2, PTPN2 (B16F10.4 cells) (Mus musculus, UniProt Q06180); assay: HiBiT Degradation B16F10.4 PTPN2; assay type: cell-based; conditions: 24.0 hours
T2 construct: HiBiT; host or cells: B16F10.4
T2 sequence (Q06180 1-406): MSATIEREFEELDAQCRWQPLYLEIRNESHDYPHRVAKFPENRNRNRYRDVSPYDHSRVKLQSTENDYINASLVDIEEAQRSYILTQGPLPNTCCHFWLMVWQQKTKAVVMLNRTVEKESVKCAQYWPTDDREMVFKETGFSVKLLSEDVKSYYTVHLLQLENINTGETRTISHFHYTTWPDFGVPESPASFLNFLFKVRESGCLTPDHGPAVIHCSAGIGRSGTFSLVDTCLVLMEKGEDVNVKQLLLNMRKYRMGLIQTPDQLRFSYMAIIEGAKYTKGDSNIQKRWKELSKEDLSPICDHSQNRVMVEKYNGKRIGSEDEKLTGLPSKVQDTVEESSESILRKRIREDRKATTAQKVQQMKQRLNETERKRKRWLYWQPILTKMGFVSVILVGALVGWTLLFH

## Cn1c(=O)n([C@@H]2CCC(=O)NC2=O)c2ccc([C@@H]3CCN(C(=O)Nc4cccc(CS(=O)(=O)N5CC[C@H](Nc6cccc(-c7sc(C(=O)O)c(OCC(=O)O)c7Cl)c6)CC5(C)C)c4)CC3(F)F)cc21 (single isomer, unassigned) [Example 169b]
[1]
  DC50: 50 to 200 nM
PTPN2 (B16F10.4 cells)
  DC50: 50 to 200 nM

## CC1(C)C[C@@H](Nc2cccc(-c3sc(C(=O)O)c(OCC(=O)O)c3Cl)c2)CCN1S(=O)(=O)Cc1cccc(NC(=O)CCCCCCNC(=O)CNc2cccc3c2CN(C2CCC(=O)NC2=O)C3=O)c1 (stereo partly drawn) [Example 18, 3-(carboxymethoxy)-4-chloro-5-(3-(((4S)-1-((3-(7-(2-((2-(2,6-dioxopiperidin-3-yl)-1-oxoisoindolin-4-yl)amino)acetamido)heptanamido)benzyl)sulfonyl)-2,2-dimethylpiperidin-4-yl)amino)phenyl)thiophene-2-carboxylic acid]
[1]
  DC50: 200 to 1000 nM
PTPN2 (B16F10.4 cells)
  DC50: 200 to 1000 nM

## CC1(C)C[C@@H](Nc2cccc(-c3sc(C(=O)O)c(OCC(=O)O)c3Cl)c2)CCN1S(=O)(=O)Cc1cccc(NC(=O)N2CCC(c3cnc4c(c3)c3ccccc3n4C3CCC(=O)NC3=O)CC2)c1 (stereo partly drawn) [Example 218, 3-(carboxymethoxy)-4-chloro-5-[3-[[(4S)-1-[[3-[[4-[9-(2,6-dioxo-3-piperidyl)pyrido[2,3-b]indol-3-yl]piperidine-1-carbonyl]amino]phenyl]methylsulfonyl]-2,2-dimethyl-4-piperidyl]amino]phenyl]thiophene-2-carboxylic acid]
[1]
  DC50: 200 to 1000 nM
PTPN2 (B16F10.4 cells)
  DC50: 200 to 1000 nM

## CC1(C)C[C@@H](Nc2cccc(-c3sc(C(=O)O)c(OCC(=O)O)c3Cl)c2)CCN1S(=O)(=O)Cc1cccc(NC(=O)COC2CCN(C(=O)CNc3cccc4c3CN(C3CCC(=O)NC3=O)C4=O)CC2)c1 (some centres unmarked) [Example 90]
[1]
  DC50: < 50 nM
PTPN2 (B16F10.4 cells)
  DC50: 200 to 1000 nM

## CC1(C)C[C@@H](Nc2cccc(-c3sc(C(=O)O)c(OCC(=O)O)c3Cl)c2)CCN1S(=O)(=O)Cc1cccc(NC(=O)N2CCC(c3ccc4c(c3)n(C3CC3)c(=O)n4C3CCC(=O)NC3=O)CC2)c1 (stereo partly drawn) [Example 154, 3-(carboxymethoxy)-4-chloro-5-[3-[[(4S)-1-[[3-[[4-[3-cyclopropyl-1-(2,6-dioxo-3-piperidyl)-2-oxo-benzimidazol-S-yl]piperidine-1-carbonyl]amino]phenyl]methylsulfonyl]-2,2-dimethyl-4-piperidyl]amino]phenyl]thiophene-2-carboxylic acid]
[1]
  DC50: 50 to 200 nM
PTPN2 (B16F10.4 cells)
  DC50: 50 to 200 nM

## Cn1c(=O)n(C2CCC(=O)NC2=O)c2ccc(C3CCN(C(=O)Nc4cc(CS(=O)(=O)N5CCC(Nc6cccc(-c7sc(C(=O)O)c(OCC(=O)O)c7Cl)c6)CC5)ccc4F)CC3)cc21 (centres unmarked) [Example 104, 3-(carboxymethoxy)-4-chloro-5-[3-[[1-[[3-[[4-[1-(2,6-dioxo-3-piperidyl)-3-methyl-2-oxo-benzimidazol-5-yl]piperidine-1-carbonyl]amino]-4-fluoro-phenyl]methylsulfonyl]-4-piperidyl]amino]phenyl]thiophene-2-carboxylic acid]
[1]
  DC50: 50 to 200 nM
PTPN2 (B16F10.4 cells)
  DC50: < 50 nM

## CC1(C)C[C@@H](Nc2cccc(-c3sc(C(=O)O)c(OCC(=O)O)c3Cl)c2)CCN1S(=O)(=O)Cc1cccc(NC(=O)N2CCC(n3c(=O)n(C4CCC(=O)NC4=O)c4ccccc43)CC2)c1 (stereo partly drawn) [Example 124, 3-(carboxymethoxy)-4-chloro-5-[3-[[(4S)-1-[[3-[[4-[3-(2,6-dioxo-3-piperidyl)-2-oxo-benzimidazol-1-yl]piperidine-1-carbonyl]amino]phenyl]methylsulfonyl]-2,2-dimethyl-4-piperidyl]amino]phenyl]thiophene-2-carboxylic acid]
[1]
  DC50: 200 to 1000 nM
PTPN2 (B16F10.4 cells)
  DC50: ≥ 1000 nM

## CC1(C)C[C@@H](Nc2cccc(-c3sc(C(=O)O)c(OCC(=O)O)c3Cl)c2)CCN1S(=O)(=O)Cc1cccc(NC(=O)C2CN(C(=O)CNc3cccc4c3CN([C@@H]3CCC(=O)NC3=O)C4=O)C2)c1 (single isomer, unassigned) [Example 44a]
[1]
  DC50: < 50 nM
PTPN2 (B16F10.4 cells)
  DC50: 200 to 1000 nM

## Cn1c(=O)n(C2CCC(=O)NC2=O)c2cccc(C3CCN(C(=O)Nc4cccc(CS(=O)(=O)N5CCC(Nc6cccc(-c7sc(C(=O)O)c(OCC(=O)O)c7Cl)c6)CC5)c4)CC3)c21 (centres unmarked) [Example 52, 3-(carboxymethoxy)-4-chloro-5-[3-[[1-[[3-[[4-[1-(2,6-dioxo-3-piperidyl)-3-methyl-2-oxo-benzimidazol-4-yl]piperidine-1-carbonyl]amino]phenyl]methylsulfonyl]-4-piperidyl]amino]phenyl]thiophene-2-carboxylic acid]
[1]
  DC50: 200 to 1000 nM
PTPN2 (B16F10.4 cells)
  DC50: 200 to 1000 nM

## O=C(O)COc1c(C(=O)O)sc(-c2cccc(NC3CCN(S(=O)(=O)Cc4cccc(NC(=O)N5CCC(Nc6cccc7c6CN(C6CCC(=O)NC6=O)C7=O)CC5)c4)CC3)c2)c1Cl (centres unmarked) [Example 59, 3-(carboxymethoxy)-4-chloro-5-[3-[[1-[[3-[[4-[[2-(2,6-dioxo-3-piperidyl)-1-oxo-isoindolin-4-yl]amino]piperidine-1-carbonyl]amino]phenyl]methylsulfonyl]-4-piperidyl]amino]phenyl]thiophene-2-carboxylic acid]
[1]
  DC50: 200 to 1000 nM
PTPN2 (B16F10.4 cells)
  DC50: 200 to 1000 nM

## CC1(C)C[C@@H](Nc2cccc(-c3sc(C(=O)O)c(OCC(=O)O)c3Cl)c2)CCN1S(=O)(=O)Cc1ccc(F)c(NC(=O)C2CN(C(=O)CNc3cccc4c3CN(C3CCC(=O)NC3=O)C4=O)C2)c1 (some centres unmarked) [Example 109]
[1]
  DC50: < 50 nM
PTPN2 (B16F10.4 cells)
  DC50: 200 to 1000 nM

## O=C(O)COc1c(C(=O)O)sc(-c2cccc(NC3CCN(S(=O)(=O)Cc4cccc(NC(=O)C5CCN(C(=O)CNc6cccc7c6C(=O)N(C6CCC(=O)NC6=O)C7=O)CC5)c4)CC3)c2)c1Cl (centres unmarked) [Example 16]
[1]
  DC50: 200 to 1000 nM
PTPN2 (B16F10.4 cells)
  DC50: ≥ 1000 nM

## CN(c1cccc(-c2sc(C(=O)O)c(OCC(=O)O)c2Cl)c1)C1CCN(S(=O)(=O)Cc2cccc(NC(=O)CCn3cc(CNc4cccc5c4C(=O)N(C4CCC(=O)NC4=O)C5=O)nn3)c2)CC1 (centres unmarked) [Example 17, 3-(carboxymethoxy)-4-chloro-5-(3-((1-((3-(3-(4-(((2-(2,6-dioxopiperidin-3-yl)-1,3-dioxoisoindolin-4-yl)amino)methyl)-1H-1,2,3-triazol-1-yl)propanamido)benzyl)sulfonyl)piperidin-4-yl)(methyl)amino)phenyl)thiophene-2-carboxylic acid]
[1]
  DC50: ≥ 1000 nM
PTPN2 (B16F10.4 cells)
  DC50: ≥ 1000 nM

## Cn1c(=O)n(C2CCC(=O)NC2=O)c2ccc(C3CCN(C(=O)Nc4cccc(CS(=O)(=O)N5CC[C@H](Nc6cccc(-c7sc(C(=O)O)c(OCC(=O)O)c7Cl)c6)CC56CC6)c4)CC3)cc21 (stereo partly drawn) [Example 190, 3-(carboxymethoxy)-4-chloro-5-(3-(((7S)-4-((3-(4-(1-(2,6-dioxopiperidin-3-yl)-3-methyl-2-oxo-2,3-dihydro-1H-benzo[d]imidazol-5-yl)piperidine-1-carboxamido)benzyl)sulfonyl)-4-azaspiro[2.5]octan-7-yl)amino)phenyl)thiophene-2-carboxylic acid]
[1]
  DC50: < 50 nM
PTPN2 (B16F10.4 cells)
  DC50: 50 to 200 nM

## CC1(C)C[C@@H](Nc2cccc(-c3sc(C(=O)O)c(OCC(=O)O)c3Cl)c2F)CCN1S(=O)(=O)Cc1ccc(F)c(NC(=O)C2CN(C(=O)CNc3cccc4c3CN([C@@H]3CCC(=O)NC3=O)C4=O)C2)c1 (single isomer, unassigned) [Example 148a]
[1]
  DC50: < 50 nM
PTPN2 (B16F10.4 cells)
  DC50: 200 to 1000 nM

## CC1(C)C[C@@H](Nc2cccc(-c3sc(C(=O)O)c(OCC(=O)O)c3Cl)c2)CCN1S(=O)(=O)Cc1cccc(NC(=O)N2CCC(c3ccc4c5c(cccc35)C(=O)N4C3CCC(=O)NC3=O)CC2)c1F (stereo partly drawn) [Example 128, 3-(carboxymethoxy)-4-chloro-5-(3-(((4S)-1-((3-(4-(1-(2,6-dioxopiperidin-3-yl)-2-oxo-1,2-dihydrobenzo[cd]indol-6-yl)piperidine-1-carboxamido)-2-fluorobenzyl)sulfonyl)-2,2-dimethylpiperidin-4-yl)amino)phenyl)thiophene-2-carboxylic acid]
[1]
  DC50: 50 to 200 nM
PTPN2 (B16F10.4 cells)
  DC50: < 50 nM

Source: patent US20250302815A1, “PROTEIN TYROSINE PHOSPHATASE TARGETING LIGANDS” (CALICO LIFE SCIENCES LLC, priority 2021, published 2025)
